Converted amounts (≈) assume the structure as drawn.
Experiments:
[1] = molecular target: T1, Adenosine receptor A1 (Cavia porcellus, UniProt P47745); experiment: Ex vivo inhibition of guinea pig ileum twitch via Adenosine A1 receptor.; type: tissue-based
T1 sequence (P47745 whole entry): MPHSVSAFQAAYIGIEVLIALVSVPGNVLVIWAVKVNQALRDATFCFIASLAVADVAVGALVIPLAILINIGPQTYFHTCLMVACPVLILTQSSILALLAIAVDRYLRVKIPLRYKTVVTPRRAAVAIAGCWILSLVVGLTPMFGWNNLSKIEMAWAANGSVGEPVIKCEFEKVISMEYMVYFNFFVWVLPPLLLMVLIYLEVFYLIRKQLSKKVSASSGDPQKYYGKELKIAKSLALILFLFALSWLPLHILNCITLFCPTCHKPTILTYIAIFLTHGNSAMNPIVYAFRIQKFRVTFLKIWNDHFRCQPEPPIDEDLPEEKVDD

[2] = The compound was evaluated for the aqueous solubility at pH value of 2.6.; type: physicochemical; conditions: pH 2.6
[3] = molecular target: T2, Adenosine receptor A2a (Rattus norvegicus, UniProt P30543); experiment: (§1) Agonistic activity against Adenosine A2A receptor on rat striatal membranes
T2 sequence (P30543 whole entry): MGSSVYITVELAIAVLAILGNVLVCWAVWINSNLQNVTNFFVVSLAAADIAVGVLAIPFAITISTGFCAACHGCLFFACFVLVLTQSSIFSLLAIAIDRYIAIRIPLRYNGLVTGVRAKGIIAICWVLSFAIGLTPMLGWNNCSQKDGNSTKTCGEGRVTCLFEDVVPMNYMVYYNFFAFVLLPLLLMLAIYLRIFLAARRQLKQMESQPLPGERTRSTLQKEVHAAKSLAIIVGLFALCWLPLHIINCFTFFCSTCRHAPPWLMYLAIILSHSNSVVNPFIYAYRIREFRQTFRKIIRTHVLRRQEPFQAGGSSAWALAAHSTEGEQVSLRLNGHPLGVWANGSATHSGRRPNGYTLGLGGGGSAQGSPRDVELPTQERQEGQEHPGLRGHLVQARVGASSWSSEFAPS

[4] = molecular target: T2, Adenosine receptor A2a; experiment: as §1; type: functional, Striatum, Membrane

Question: With `Nc1nc(NC2CCCC2)nc2c1ncn2[C@@H]1O[C@H](CO)[C@@H](O)[C@H]1O` as the compound, how does the ECR [1] read?
Answer: 549

Question: For `CCNC(=O)[C@H]1O[C@@H](n2cnc3c(N)nc(N[C@@H]4CCC[C@H]4O)nc32)[C@H](O)[C@@H]1O`, which ECR [1] is on record?
Answer: 260

Question: For `OC[C@H]1O[C@@H](n2cnc3c(NCC(c4ccccc4)c4ccccc4)nc(NC4CCCC4)nc32)[C@H](O)[C@@H]1O`, which ECR [1] is on record?
Answer: > 612

Question: Which solubility [2] does the source give for `CCNC(=O)[C@H]1O[C@@H](n2cnc3c(NCC(c4ccccc4)c4ccccc4)nc(NCCN4CCCCC4)nc32)[C@H](O)[C@@H]1O.O=C(O)C(F)(F)F` here?
Answer: ≥ 1870 µg/mL

Question: And the ECR [1]?
Answer: 263

Question: For `OC[C@H]1O[C@@H](n2cnc3c(N[C@@H]4CCC[C@@H]4O)nc(Cl)nc32)[C@H](O)[C@@H]1O`, which ECR [1] is on record?
Answer: 2

Question: For `CCNC(=O)[C@H]1O[C@@H](n2cnc3c(NCC(c4ccccc4)c4ccccc4)nc(N[C@@H]4CCC[C@H]4O)nc32)[C@H](O)[C@@H]1O`, which ECR [1] is on record?
Answer: 390

Question: With `Nc1nc(N[C@H]2CCC[C@@H]2O)nc2c1ncn2[C@@H]1O[C@H](CO)[C@@H](O)[C@H]1O` as the compound, how does the ECR [1] read?
Answer: 84

Question: For `OC[C@H]1O[C@@H](n2cnc3c(NCc4cccc5ccccc45)ncnc32)[C@H](O)[C@@H]1O`, which Ki [3] is on record?
Answer: 0.0094 µM

Question: Which ECR [1] does the source give for `OC[C@H]1O[C@@H](n2cnc3c(NC4CCCC4)nc(Cl)nc32)[C@H](O)[C@@H]1O` here?
Answer: 1

Question: For `Nc1nc(N[C@@H]2CCC[C@H]2O)nc2c1ncn2[C@@H]1O[C@H](CO)[C@@H](O)[C@H]1O`, which ECR [1] is on record?
Answer: 1470

Question: For `CCNC(=O)[C@H]1O[C@@H](n2cnc3c(NCC(c4ccccc4)c4ccccc4)nc(NCCc4c[nH]cn4)nc32)[C@H](O)[C@@H]1O`, which solubility [2] is on record?
Answer: ≥ 1820 µg/mL

Question: And the ECR [1]?
Answer: 672

Question: With `CCNC(=O)[C@H]1O[C@@H](n2cnc3c(NCC(c4ccccc4)c4ccccc4)nc(N[C@H]4CC[C@H](N)CC4)nc32)[C@H](O)[C@@H]1O.O=C(O)C(F)(F)F` as the compound, how does the solubility [2] read?
Answer: 1570 µg/mL

Question: And the ECR [1]?
Answer: 369

Question: For `OC[C@H]1O[C@@H](n2cnc3c(NCCc4cccc(Cl)c4)nc(NC4CCCC4)nc32)[C@H](O)[C@@H]1O`, which ECR [1] is on record?
Answer: > 1000

Question: With `CCNC(=O)[C@H]1O[C@@H](n2cnc3c(N)nc(NC4CCCC4)nc32)[C@H](O)[C@@H]1O` as the compound, how does the ECR [1] read?
Answer: 80

Question: With `OC[C@H]1O[C@@H](n2cnc3c(NCc4cccc5ccccc45)nc(NC4CCCCC4)nc32)[C@H](O)[C@@H]1O` as the compound, how does the Ki [4] read?
Answer: 10.3 µM

Question: For `CCNC(=O)[C@H]1O[C@@H](n2cnc3c(NCC(c4ccccc4)c4ccccc4)nc(NC4CCCC4)nc32)[C@H](O)[C@@H]1O`, which solubility [2] is on record?
Answer: 24 µg/mL (≈ 42 µM)

Question: What about the ECR [1] of the same compound?
Answer: > 5000

— ChEMBL document CHEMBL1133401 (Bioorg Med Chem Lett, 2000)
